# Tests used:
# Cercospora kikuchii = experiment: Growth of germs on potato dextrose-agar medium containing the compound (Ex. 15); type: cell-based; parameters: key: +++: extremely much growth; ++: much growth; +: a little growth; -: no growth; conditions: two weeks, 25° C.
# Procedure: (§1) Ethyl 2-(2-hydroxyethylamino)-3-benzoylpropionate hydrochloride was added to potato dextrose-agar culture medium in the concentration indicated in Table 1 and the suspensions of various kinds of germs were dropped on the culture medium. After incubation of the germs for two weeks in thermostat (25° C.), the growing conditions were observed.
# (§2) In Table 1, +++, ++, + and - represent "extremely much growth", "much growth", "a little growth" and "no growth" respectively.
# Sphaerotheca fuliginea = experiment: Prevention effect for powdery mildew on cucumbers (Ex. 20, 21); type: in vivo; conditions: Table 5; for Germicidal damage to seedlings: cucumber seedlings; for Percentage of leaf area with disease spots / Percentage of leaves attacked with the disease / Prevention value per leaf (Perfect prevention = 100): third and ninth days, read fifteenth day after inoculation
# Procedure: The prevention effect for powdery mildew on cucumbers caused by Sphaerotheca fuliginea was examined in the following manner.
# Cucumber seedlings (bifoliate age) of Tokiwa Hikari No. 3 (p type) variety planted in sections of two rows of three were inoculated with the above germ by brushing on spores from a cucumber leaf attacked with powdery mildew. […]
# The leaf area on which powdery mildew spots appeared was measured on the fifteenth day after the seedlings were inoculated with the germ. The spotted area is expresses as a prevention value.
# The same experiment as Example 20 was carried out except that isopropyl 2-(2-hydroxyethylamino)-3-benzoyl-propionate hydrochloride was used instead of ethyl 2-(2-hydroxyethylamino)-3-benzoylpropionate hydrochloride.
# Cladosporium cucumerium = experiment: Growth of germs on potato dextrose-agar medium containing the compound (Ex. 4); type: cell-based; parameters: key: +++: extremely much growth; ++: much growth; +: a little growth; -: no growth; conditions: two weeks, 25° C.
# Procedure: as §1, §2
# Valsa ceratosperma [1] = experiment: Growth of germs on potato dextrose-agar medium containing the compound (Ex. 1); type: cell-based; parameters: key: +++: extremely much growth; ++: much growth; +: a little growth; -: no growth; conditions: two weeks, 25° C.
# Procedure: as §1, §2
# Mycosphaerella melonis = experiment: Growth of germs on potato dextrose-agar medium containing the compound (Ex. 13); type: cell-based; parameters: key: +++: extremely much growth; ++: much growth; +: a little growth; -: no growth; conditions: two weeks, 25° C.
# Procedure: as §1, §2
# Valsa ceratosperma [2] = experiment: Length of disease spots on apple branches treated on the third day after inoculation (Ex. 17); type: in vivo; conditions: 1000 ppm on third day after inoculation
# Procedure: Branches of Delicious apple (branch diameter: about 1 cm. thick) grown for 1-2 years were cut to 10 cm. length. The cut branches were dried in a low temperature chamber (3° C.) until the water content of the cut branches became 50%. The dried cut branches were immersed in an aqueous solution of ethyl 2-(2-hydroxyethylamino)-3-benzoylpropionate hydrochloride (500 ppm, 1000 ppm and 2500 ppm) for one minute and then dried.
# Each cut branch was end bored by a white heated 8 mm diameter cork borer. Valsa ceratosperma, previously cultured for four days on a potato dextrose-agar culture medium, was introduced into the branch by inoculating the branch with the Valsa ceratosperma containing culture by means of the sterilized cork borer. The branches prepared in this way were placed on wet filter paper spread in a polyethylene tray. The tray was inserted into a polyethylene bag which was sealed and then the bag was put into a thermostat (25° C.) for various controlled times.
# After removal from the thermostat, the length of disease spots on each branch was measured.
# The same experiment as in Example 16 was carried out except that the apple branches were treated with the germicides (1000 ppm) on the third day after the branches were inoculated with the germ. The lengths of disease spots on the third day […], fifth day and seventh day were 5.1 mm, 5.2 mm and 5.2 mm respectively.
# Botrytis alli = experiment: Growth of germs on potato dextrose-agar medium containing the compound (Ex. 3); type: cell-based; parameters: key: +++: extremely much growth; ++: much growth; +: a little growth; -: no growth; conditions: two weeks, 25° C.
# Procedure: as §1, §2
# Verticillium alboatrum = experiment: Growth of germs on potato dextrose-agar medium containing the compound (Ex. 2); type: cell-based; parameters: key: +++: extremely much growth; ++: much growth; +: a little growth; -: no growth; conditions: two weeks, 25° C.
# Procedure: as §1, §2
# Pyrenochaeta sp. = experiment: Growth of germs on potato dextrose-agar medium containing the compound (Ex. 14); type: cell-based; parameters: key: +++: extremely much growth; ++: much growth; +: a little growth; -: no growth; conditions: two weeks, 25° C.
# Procedure: as §1, §2
# Phomopsis vexans = experiment: Growth of germs on potato dextrose-agar medium containing the compound (Ex. 11); type: cell-based; parameters: key: +++: extremely much growth; ++: much growth; +: a little growth; -: no growth; conditions: two weeks, 25° C.
# Procedure: as §1, §2
smiles,measurement,setting,value
CCOC(=O)C(CC(=O)c1ccccc1)NCCO.Cl (stereo not drawn) [Ethyl 2-(2-hydroxyethylamino)-3-benzoylpropionate hydrochloride],growing conditions (growth of germ),Cercospora kikuchii; 10 ppm,+
same,growing conditions (growth of germ),Cercospora kikuchii; 20 ppm,-
same,growing conditions (growth of germ),Cercospora kikuchii; 50 ppm,-
same,growing conditions (growth of germ),Cercospora kikuchii; 100 ppm,-
same,growing conditions (growth of germ),Cercospora kikuchii; 200 ppm,-
same,Germicidal damage to seedlings,Sphaerotheca fuliginea; 2500 ppm,none
same,Percentage of leaf area with disease spots,Sphaerotheca fuliginea; 2500 ppm,0%
same,Percentage of leaves attacked with the disease,Sphaerotheca fuliginea; 2500 ppm,0%
same,Prevention value per leaf (Perfect prevention = 100),Sphaerotheca fuliginea; 2500 ppm,100
same,Germicidal damage to seedlings,Sphaerotheca fuliginea; 5000 ppm,none
same,Percentage of leaf area with disease spots,Sphaerotheca fuliginea; 5000 ppm,0%
same,Percentage of leaves attacked with the disease,Sphaerotheca fuliginea; 5000 ppm,0%
same,Prevention value per leaf (Perfect prevention = 100),Sphaerotheca fuliginea; 5000 ppm,100
same,growing conditions (growth of germ),Cladosporium cucumerium; 10 ppm,+++
same,growing conditions (growth of germ),Cladosporium cucumerium; 20 ppm,+++
same,growing conditions (growth of germ),Cladosporium cucumerium; 50 ppm,-
same,growing conditions (growth of germ),Cladosporium cucumerium; 100 ppm,-
same,growing conditions (growth of germ),Cladosporium cucumerium; 200 ppm,-
same,growing conditions (growth of germ),Valsa ceratosperma [1]; 10 ppm,-
same,growing conditions (growth of germ),Valsa ceratosperma [1]; 20 ppm,-
same,growing conditions (growth of germ),Valsa ceratosperma [1]; 50 ppm,-
same,growing conditions (growth of germ),Valsa ceratosperma [1]; 100 ppm,-
same,growing conditions (growth of germ),Valsa ceratosperma [1]; 200 ppm,-
same,growing conditions (growth of germ),Mycosphaerella melonis; 10 ppm,+++
same,growing conditions (growth of germ),Mycosphaerella melonis; 20 ppm,-
same,growing conditions (growth of germ),Mycosphaerella melonis; 50 ppm,-
same,growing conditions (growth of germ),Mycosphaerella melonis; 100 ppm,-
same,growing conditions (growth of germ),Mycosphaerella melonis; 200 ppm,-
same,lengths of disease spots,Valsa ceratosperma [2]; fifth day,5.2 mm
same,lengths of disease spots,Valsa ceratosperma [2]; seventh day,5.2 mm
same,lengths of disease spots,Valsa ceratosperma [2]; third day,5.1 mm
same,growing conditions (growth of germ),Botrytis alli; 10 ppm,+
same,growing conditions (growth of germ),Botrytis alli; 20 ppm,-
same,growing conditions (growth of germ),Botrytis alli; 50 ppm,-
same,growing conditions (growth of germ),Botrytis alli; 100 ppm,-
same,growing conditions (growth of germ),Botrytis alli; 200 ppm,-
same,growing conditions (growth of germ),Verticillium alboatrum; 10 ppm,+++
same,growing conditions (growth of germ),Verticillium alboatrum; 20 ppm,++
same,growing conditions (growth of germ),Verticillium alboatrum; 50 ppm,-
same,growing conditions (growth of germ),Verticillium alboatrum; 100 ppm,-
same,growing conditions (growth of germ),Verticillium alboatrum; 200 ppm,-
same,growing conditions (growth of germ),Pyrenochaeta sp.; 10 ppm,++
same,growing conditions (growth of germ),Pyrenochaeta sp.; 20 ppm,++
same,growing conditions (growth of germ),Pyrenochaeta sp.; 50 ppm,-
same,growing conditions (growth of germ),Pyrenochaeta sp.; 100 ppm,-
same,growing conditions (growth of germ),Pyrenochaeta sp.; 200 ppm,-
same,growing conditions (growth of germ),Phomopsis vexans; 10 ppm,+
same,growing conditions (growth of germ),Phomopsis vexans; 20 ppm,-
same,growing conditions (growth of germ),Phomopsis vexans; 50 ppm,-
same,growing conditions (growth of germ),Phomopsis vexans; 100 ppm,-
same,growing conditions (growth of germ),Phomopsis vexans; 200 ppm,-

# — US4241083A, “Germicidal composition for agriculture and horticulture” (priority 1978, dated 1980)
